Source: ChEMBL document CHEMBL4390652, “Design, biological evaluation and X-ray crystallography of nanomolar multifunctional ligands targeting simultaneously acetylcholinesterase and glycogen synthase kinase-3” (Eur J Med Chem, 2019)

Tests used:
[1] = system: Tyrosine-protein kinase ABL1 (Homo sapiens), P00519 [F317L]; assay: Binding affinity to human non-phosphorylated ABL1 F317L mutant (S229 to K512 residues) expressed in mammalian expression system assessed as residual binding level at 10 uM by Kinomescan method relative to control
[2] = system: Tyrosine-protein kinase ABL1 (Homo sapiens), P00519 [H396P]; assay: Binding affinity to human phosphorylated ABL1 H396P mutant (S229 to K512 residues) expressed in mammalian expression system assessed as residual binding level at 10 uM by Kinomescan method relative to control
[3] = biological target: Mitogen-activated protein kinase kinase kinase 5 (Homo sapiens) (UniProt Q99683); assay: Binding affinity to wild-type human partial length ASK1 (E648 to S964 residues) expressed in bacterial expression system assessed as residual binding level at 10 uM by Kinomescan method relative to control
[4] = biological target: Serine/threonine-protein kinase Chk1 (Homo sapiens) (UniProt O14757); assay: Binding affinity to wild-type human partial length CHEK1 (M1 to G289 residues) expressed in bacterial expression system assessed as residual binding level at 10 uM by Kinomescan method relative to control
[5] = biological target: Epithelial discoidin domain-containing receptor 1 (Homo sapiens) (UniProt Q08345); assay: Binding affinity to wild-type human partial length DDR1 (R565 to V876 residues) expressed in bacterial expression system assessed as residual binding level at 10 uM by Kinomescan method relative to control
[6] = system: Epidermal growth factor receptor (Homo sapiens), P00533 [T790M]; assay: Binding affinity to human partial length EGFR T790M mutant (R669 to G1022 residues) expressed in mammalian expression system assessed as residual binding level at 10 uM by Kinomescan method relative to control
[7] = biological target: Receptor tyrosine-protein kinase erbB-2 (Homo sapiens) (UniProt P04626); assay: Binding affinity to wild-type human partial length ERBB2 (K646 to V1225 residues) expressed in mammalian expression system assessed as residual binding level at 10 uM by Kinomescan method relative to control
[8] = biological target: Focal adhesion kinase 1 (Homo sapiens) (UniProt Q05397); assay: Binding affinity to wild-type human partial length FAK (D402 to R696 residues) expressed in bacterial expression system assessed as residual binding level at 10 uM by Kinomescan method relative to control
[9] = biological target: Tyrosine-protein kinase FRK (Homo sapiens) (UniProt P42685); assay: Binding affinity to wild-type human partial length FRK (A215 to F503 residues) expressed in bacterial expression system assessed as residual binding level at 10 uM by Kinomescan method relative to control
[10] = biological target: Beta-adrenergic receptor kinase 1 (Homo sapiens) (UniProt P25098); assay: Binding affinity to wild-type human full length GRK2 (M1 to L689 residues) expressed in mammalian expression system assessed as residual binding level at 10 uM by Kinomescan method relative to control
[11] = biological target: Mitogen-activated protein kinase 10 (Homo sapiens) (UniProt P53779); assay: Binding affinity to wild-type human partial length JNK3 (V28 to Q422 residues) expressed in mammalian expression system assessed as residual binding level at 10 uM by Kinomescan method relative to control
[12] = biological target: MAP/microtubule affinity-regulating kinase 4 (Homo sapiens) (UniProt Q96L34); assay: Binding affinity to wild-type human partial length MARK4 (K29 to G340 residues) expressed in bacterial expression system assessed as residual binding level at 10 uM by Kinomescan method relative to control
[13] = biological target: Dual specificity mitogen-activated protein kinase kinase 5 (Homo sapiens) (UniProt Q13163); assay: Binding affinity to wild-type human partial length MEK5 (L98 to P448 residues) expressed in mammalian expression system assessed as residual binding level at 10 uM by Kinomescan method relative to control
[14] = biological target: Myosin light chain kinase, smooth muscle (Homo sapiens) (UniProt Q15746); assay: Binding affinity to wild-type human full length MYLK (M854 to E1845 residues) expressed in mammalian expression system assessed as residual binding level at 10 uM by Kinomescan method relative to control
[15] = biological target: Serine/threonine-protein kinase PLK4 (Homo sapiens) (UniProt O00444); assay: Binding affinity to wild-type human partial length PLK4 (M1 to S273 residues) expressed in mammalian expression system assessed as residual binding level at 10 uM by Kinomescan method relative to control
[16] = biological target: Ribosomal protein S6 kinase alpha-4 (Homo sapiens) (UniProt O75676); assay: Binding affinity to wild-type human partial length N-terminal RPS6KA4 kinase domain 1 expressed in bacterial expression system assessed as residual binding level at 10 uM by Kinomescan method relative to control
[17] = biological target: Ribosomal protein S6 kinase alpha-3 (Homo sapiens) (UniProt P51812); assay: Binding affinity to wild-type human partial length C-terminal RSK2 kinase domain 2 (V402 to S715 residues) expressed in mammalian expression system assessed as residual binding level at 10 uM by Kinomescan method relative to control
[18] = biological target: Mitogen-activated protein kinase kinase kinase 7 (Homo sapiens) (UniProt O43318); assay: Binding affinity to wild-type human partial length TAK1 (M1 to Q303 residues) expressed in mammalian expression system assessed as residual binding level at 10 uM by Kinomescan method relative to control
[19] = biological target: Tyrosine-protein kinase Tec (Homo sapiens) (UniProt P42680); assay: Binding affinity to wild-type human partial length TEC (L341 to D620 residues) expressed in bacterial expression system assessed as residual binding level at 10 uM by Kinomescan method relative to control
[20] = biological target: Serine/threonine-protein kinase tousled-like 2 (Homo sapiens) (UniProt Q86UE8); assay: Binding affinity to wild-type human partial length TLK2 (E424 to N749 residues) expressed in bacterial expression system assessed as residual binding level at 10 uM by Kinomescan method relative to control
[21] = biological target: TRAF2 and NCK-interacting protein kinase (Homo sapiens) (UniProt Q9UKE5); assay: Binding affinity to wild-type human partial length TNIK (D4 to K311 residues) expressed in bacterial expression system assessed as residual binding level at 10 uM by Kinomescan method relative to control
[22] = biological target: Tyrosine-protein kinase TXK (Homo sapiens) (UniProt P42681); assay: Binding affinity to wild-type human partial length TXK (L238 to W527 residues) expressed in bacterial expression system assessed as residual binding level at 10 uM by Kinomescan method relative to control
[23] = biological target: Tyrosine-protein kinase receptor TYRO3 (Homo sapiens) (UniProt Q06418); assay: Binding affinity to wild-type human partial length TYRO3 (S497 to T814 residues) expressed in bacterial expression system assessed as residual binding level at 10 uM by Kinomescan method relative to control
[24] = biological target: Serine/threonine-protein kinase WNK4 (Homo sapiens) (UniProt Q96J92); assay: Binding affinity to wild-type human partial length WNK4 (A31 to D461 residues) expressed in mammalian expression system assessed as residual binding level at 10 uM by Kinomescan method relative to control

Chain of Serine/threonine-protein kinase Chk1 (Homo sapiens) (O14757 whole entry, the tested form may be a part): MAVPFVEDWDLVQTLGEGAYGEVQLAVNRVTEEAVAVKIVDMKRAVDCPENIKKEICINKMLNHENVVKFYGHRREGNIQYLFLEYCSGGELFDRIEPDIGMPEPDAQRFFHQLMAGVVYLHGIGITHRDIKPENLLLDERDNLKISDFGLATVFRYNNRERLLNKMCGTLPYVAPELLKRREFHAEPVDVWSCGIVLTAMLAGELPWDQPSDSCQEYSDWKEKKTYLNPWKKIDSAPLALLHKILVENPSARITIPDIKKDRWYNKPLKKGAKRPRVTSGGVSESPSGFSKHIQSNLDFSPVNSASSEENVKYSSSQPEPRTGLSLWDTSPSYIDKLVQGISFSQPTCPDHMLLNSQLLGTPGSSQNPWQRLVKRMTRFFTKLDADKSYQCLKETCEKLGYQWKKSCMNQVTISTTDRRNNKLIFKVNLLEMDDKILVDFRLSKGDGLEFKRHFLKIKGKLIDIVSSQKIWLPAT
Chain of Ribosomal protein S6 kinase alpha-4 (Homo sapiens) (O75676 whole entry, looked up, the tested form may be a part): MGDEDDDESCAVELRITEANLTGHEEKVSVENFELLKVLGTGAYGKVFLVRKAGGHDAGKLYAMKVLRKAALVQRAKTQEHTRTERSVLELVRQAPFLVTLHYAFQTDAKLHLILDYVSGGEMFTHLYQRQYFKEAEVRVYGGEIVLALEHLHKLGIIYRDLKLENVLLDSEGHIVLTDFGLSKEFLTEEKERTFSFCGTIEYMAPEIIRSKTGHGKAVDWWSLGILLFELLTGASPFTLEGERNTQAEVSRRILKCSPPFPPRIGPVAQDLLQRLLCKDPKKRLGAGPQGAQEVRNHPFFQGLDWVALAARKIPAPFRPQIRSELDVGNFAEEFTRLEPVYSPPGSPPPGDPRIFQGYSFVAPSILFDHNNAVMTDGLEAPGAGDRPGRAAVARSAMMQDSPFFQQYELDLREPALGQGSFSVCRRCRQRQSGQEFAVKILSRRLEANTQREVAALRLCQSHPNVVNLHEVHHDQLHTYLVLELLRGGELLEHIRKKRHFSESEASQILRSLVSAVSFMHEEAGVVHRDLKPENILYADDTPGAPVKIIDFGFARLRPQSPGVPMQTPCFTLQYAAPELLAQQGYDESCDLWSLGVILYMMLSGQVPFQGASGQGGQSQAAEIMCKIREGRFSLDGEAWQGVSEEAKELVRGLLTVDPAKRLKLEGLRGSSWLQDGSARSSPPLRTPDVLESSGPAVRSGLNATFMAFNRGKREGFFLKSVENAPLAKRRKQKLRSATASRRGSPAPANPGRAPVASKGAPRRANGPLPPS
Chain of Serine/threonine-protein kinase PLK4 (Homo sapiens) (O00444 whole entry, the tested form may be a part): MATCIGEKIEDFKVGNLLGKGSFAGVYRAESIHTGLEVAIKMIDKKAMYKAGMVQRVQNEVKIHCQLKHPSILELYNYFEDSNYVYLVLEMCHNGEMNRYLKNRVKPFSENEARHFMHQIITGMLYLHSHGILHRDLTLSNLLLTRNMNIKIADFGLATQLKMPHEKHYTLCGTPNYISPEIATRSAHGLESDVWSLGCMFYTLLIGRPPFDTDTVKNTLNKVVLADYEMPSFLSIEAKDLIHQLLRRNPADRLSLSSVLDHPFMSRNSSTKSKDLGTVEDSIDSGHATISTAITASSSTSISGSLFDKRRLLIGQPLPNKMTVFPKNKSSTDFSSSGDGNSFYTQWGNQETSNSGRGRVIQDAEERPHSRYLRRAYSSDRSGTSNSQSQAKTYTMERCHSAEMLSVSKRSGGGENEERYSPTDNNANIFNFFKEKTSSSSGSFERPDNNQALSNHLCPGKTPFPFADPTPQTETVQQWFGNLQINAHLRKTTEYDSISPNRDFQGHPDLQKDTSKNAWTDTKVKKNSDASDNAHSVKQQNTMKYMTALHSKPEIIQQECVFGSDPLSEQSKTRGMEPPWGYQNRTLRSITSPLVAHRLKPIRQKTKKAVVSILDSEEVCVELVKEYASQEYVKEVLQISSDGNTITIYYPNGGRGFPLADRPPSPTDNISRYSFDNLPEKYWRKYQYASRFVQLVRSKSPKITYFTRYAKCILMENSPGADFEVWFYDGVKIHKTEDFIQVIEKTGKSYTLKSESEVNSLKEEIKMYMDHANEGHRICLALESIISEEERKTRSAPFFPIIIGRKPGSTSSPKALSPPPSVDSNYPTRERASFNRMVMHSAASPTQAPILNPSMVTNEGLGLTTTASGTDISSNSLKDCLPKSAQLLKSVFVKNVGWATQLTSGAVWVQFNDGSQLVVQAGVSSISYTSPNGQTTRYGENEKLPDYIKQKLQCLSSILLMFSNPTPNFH
Chain of TRAF2 and NCK-interacting protein kinase (Homo sapiens) (Q9UKE5 whole entry, looked up, the tested form may be a part): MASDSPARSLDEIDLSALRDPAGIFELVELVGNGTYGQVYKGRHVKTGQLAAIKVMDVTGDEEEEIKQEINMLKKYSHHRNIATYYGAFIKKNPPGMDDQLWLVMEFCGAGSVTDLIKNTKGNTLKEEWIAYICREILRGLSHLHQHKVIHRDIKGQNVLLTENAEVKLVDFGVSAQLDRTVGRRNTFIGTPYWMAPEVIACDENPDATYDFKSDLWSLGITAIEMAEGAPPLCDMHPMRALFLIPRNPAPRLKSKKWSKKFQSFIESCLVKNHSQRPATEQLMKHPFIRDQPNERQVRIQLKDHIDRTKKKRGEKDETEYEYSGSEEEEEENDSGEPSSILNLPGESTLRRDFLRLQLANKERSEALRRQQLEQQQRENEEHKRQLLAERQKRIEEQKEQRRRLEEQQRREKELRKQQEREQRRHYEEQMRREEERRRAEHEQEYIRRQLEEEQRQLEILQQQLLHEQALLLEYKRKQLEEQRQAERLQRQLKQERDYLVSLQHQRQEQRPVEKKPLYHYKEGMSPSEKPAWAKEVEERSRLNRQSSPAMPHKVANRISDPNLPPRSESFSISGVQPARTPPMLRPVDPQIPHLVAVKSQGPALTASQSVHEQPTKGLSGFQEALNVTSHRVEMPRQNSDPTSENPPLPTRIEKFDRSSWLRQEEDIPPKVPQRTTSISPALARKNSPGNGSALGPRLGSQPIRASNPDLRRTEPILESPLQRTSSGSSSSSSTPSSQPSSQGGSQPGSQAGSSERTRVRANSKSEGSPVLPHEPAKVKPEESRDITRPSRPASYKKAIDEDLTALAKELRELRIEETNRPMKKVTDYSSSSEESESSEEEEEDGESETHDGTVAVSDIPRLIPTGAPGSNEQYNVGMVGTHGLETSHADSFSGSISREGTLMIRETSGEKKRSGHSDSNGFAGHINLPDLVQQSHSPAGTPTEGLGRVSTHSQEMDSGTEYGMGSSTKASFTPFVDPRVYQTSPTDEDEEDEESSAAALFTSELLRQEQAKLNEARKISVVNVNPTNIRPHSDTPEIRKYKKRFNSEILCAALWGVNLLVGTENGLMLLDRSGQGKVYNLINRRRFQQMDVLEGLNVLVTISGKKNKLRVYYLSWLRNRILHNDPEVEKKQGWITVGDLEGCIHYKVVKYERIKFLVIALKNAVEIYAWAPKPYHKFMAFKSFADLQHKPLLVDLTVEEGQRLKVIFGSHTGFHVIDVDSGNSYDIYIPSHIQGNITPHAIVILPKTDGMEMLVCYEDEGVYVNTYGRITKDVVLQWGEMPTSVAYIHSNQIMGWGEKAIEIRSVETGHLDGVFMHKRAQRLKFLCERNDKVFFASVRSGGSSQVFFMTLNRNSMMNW
Chain of Tyrosine-protein kinase TXK (Homo sapiens) (P42681 whole entry, the tested form may be a part): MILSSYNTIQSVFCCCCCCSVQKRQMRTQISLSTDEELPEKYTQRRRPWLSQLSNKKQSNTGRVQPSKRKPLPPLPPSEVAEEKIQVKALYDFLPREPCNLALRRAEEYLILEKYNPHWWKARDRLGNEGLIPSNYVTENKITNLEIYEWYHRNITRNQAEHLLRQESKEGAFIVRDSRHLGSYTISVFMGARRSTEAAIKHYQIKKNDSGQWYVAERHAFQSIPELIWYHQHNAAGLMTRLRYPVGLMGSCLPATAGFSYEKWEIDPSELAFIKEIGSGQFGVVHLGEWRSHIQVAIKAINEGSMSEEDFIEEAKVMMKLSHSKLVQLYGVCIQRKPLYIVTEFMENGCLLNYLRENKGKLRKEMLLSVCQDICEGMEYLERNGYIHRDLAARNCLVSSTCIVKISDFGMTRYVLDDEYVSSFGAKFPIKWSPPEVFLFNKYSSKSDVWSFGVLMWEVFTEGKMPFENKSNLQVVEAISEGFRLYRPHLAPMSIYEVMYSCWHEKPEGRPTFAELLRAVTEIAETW
Chain of Tyrosine-protein kinase Tec (Homo sapiens) (P42680 whole entry, the tested form may be a part): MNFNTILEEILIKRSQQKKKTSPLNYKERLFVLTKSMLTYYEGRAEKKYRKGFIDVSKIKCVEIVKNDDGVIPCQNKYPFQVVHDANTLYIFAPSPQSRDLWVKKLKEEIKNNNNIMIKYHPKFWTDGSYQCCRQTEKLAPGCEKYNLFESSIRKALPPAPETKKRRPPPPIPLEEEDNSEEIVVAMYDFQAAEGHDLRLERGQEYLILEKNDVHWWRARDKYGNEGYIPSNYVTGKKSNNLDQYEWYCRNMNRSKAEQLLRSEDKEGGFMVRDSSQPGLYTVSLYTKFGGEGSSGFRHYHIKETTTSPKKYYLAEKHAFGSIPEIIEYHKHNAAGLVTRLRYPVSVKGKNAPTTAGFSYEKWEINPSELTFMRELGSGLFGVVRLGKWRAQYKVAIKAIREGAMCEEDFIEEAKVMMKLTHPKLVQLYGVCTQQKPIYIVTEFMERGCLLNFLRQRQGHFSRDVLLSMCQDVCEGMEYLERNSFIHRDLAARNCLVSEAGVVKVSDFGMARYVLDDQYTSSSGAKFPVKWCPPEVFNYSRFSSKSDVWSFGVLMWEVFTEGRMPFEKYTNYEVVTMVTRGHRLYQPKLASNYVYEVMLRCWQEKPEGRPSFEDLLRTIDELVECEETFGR

**Q.** Which results are given for `O=C(Nc1cc(-c2cn(CCNc3c4c(nc5ccccc35)CCCC4)nn2)ccn1)Nc1cccc2c1C1CCCCN1C2=O` (racemic)?
**A.** Activity [1]: 78%; Activity [2]: 0.5%; Activity [3]: 80%; Activity [4]: 92%; Activity [5]: 0.3%; Activity [6]: 70%; Activity [7]: 100%; Activity [8]: 87%; Activity [9]: 99%; Activity [10]: 100%; Activity [11]: 1.3%; Activity [12]: 35%; Activity [13]: 1.6%; Activity [14]: 52%; Activity [15]: 100%; Activity [16]: 22%; Activity [17]: 100%; Activity [18]: 1.6%; Activity [19]: 93%; Activity [20]: 37%; Activity [21]: 48%; Activity [22]: 95%; Activity [23]: 96%; Activity [24]: 100%
